Results taken from PubChem BioAssay AID489022 (Sanford-Burnham Center for Chemical Genomics, 2010).
Active and inactive are the calls of the source. No rule for the calls is given here.

system: HEK-293T NF-kB luciferase reporter, luminescence counterscreen; assay: inhibitors of NF-kB luciferase reporter, HEK-293T, dose response, counter-screen for BCR NF-kB inhibitor project, luminescence, B-cell screen hits (AID 489022)

Row | Structure (SMILES) | IC50
1 | COc1cc(/C(C)=N\NC(N)=S)cc(OC)c1OC | > 80 µM (inactive)
2 | CCC(CO)Oc1cc(NCc2ccccc2O)c2ncn(C(C)C)c2c1 (centres undefined) | 4.79 µM
3 | COc1cc(OC)cc(-c2cc3nc(C)c(CCC(=O)NCc4ccccc4)c(C)n3n2)c1 | 10.5 µM
4 | CC1=CC(C)(C)Nc2ccc(OC(=O)c3cccnc3)cc21 | 16.1 µM
5 | N=c1c2c(n(Cc3cccc(Cl)c3)c3c1CCC3)CCCC2 | 3.77 µM
6 | COc1ccccc1/C=C1/SC(=S)N(CCC(=O)Nc2cccnc2)C1=O | 37 µM (inactive)
7 | CCOc1ccc(-n2c(-c3ccccc3)c[n+]3c2CCCCC3)cc1 | 1.4 µM
8 | CC(C)c1[nH]nc2c1C(c1ccco1)C(C#N)=C(N)O2 (centres undefined) | > 80 µM (inactive)
9 | Cc1cc2ccccn2c1C(=O)c1ccc(NN)c([N+](=O)[O-])c1 | 30.5 µM (inactive)
10 | ClCc1nnc(-c2ccccc2)o1 | > 80 µM (inactive)
11 | CCc1ccc2[nH]c3nc(N/N=C/c4cccc(O)c4)nnc3c2c1 | > 80 µM (inactive)
12 | CC1=CC(C)(C)Nc2ccc(OC(=O)C(Cc3ccccc3)N3C(=O)c4ccccc4C3=O)cc21 (centres undefined) | > 80 µM (inactive)
13 | COc1ccc(NC(=O)c2cc(-c3ccccn3)nc3ccccc23)cc1S(=O)(=O)N(C)C | 51.4 µM (inactive)
14 | O=c1c(C=NCCCO)c(-c2ccccc2)[nH]n1-c1nc2ccccc2s1 | > 80 µM (inactive)
15 | Cc1cc(OCC(=O)NC2CC2)c2c(C)c(C)c(=O)oc2c1 | > 80 µM (inactive)
16 | COc1ccccc1/C=C1\SC(=S)N(CCC(=O)NC2=NCCS2)C1=O | > 80 µM (inactive)
17 | Cc1ccc(C2(c3ccc(C)cc3)CC2C(=O)Nc2ccc([N+](=O)[O-])cc2O)cc1 (centres undefined) | 4.59 µM
18 | COc1ccc(C(=O)n2nc(-c3ccc(Cl)cc3)nc2N)cc1OC | > 80 µM (inactive)
19 | COc1cccc(/C=C2\SC(=S)N(CCCC(=O)NC3=NCCS3)C2=O)c1 | 69.1 µM (inactive)
20 | CC(C)C(=O)Nc1ccc(NC(=O)c2ccc3c(c2)OCO3)cc1 | > 80 µM (inactive)
21 | Nc1ccc(-c2cc3ccccc3oc2=O)cc1 | 3.53 µM
22 | CCN(CC(=O)Nc1c(F)cccc1F)C(=O)c1cc(S(=O)(=O)N(CC)CC)ccc1N1CCCCC1 | 26.8 µM (inactive)
23 | CCCCn1c2c(c(=N)c3ccccc31)CCC2 | 40.8 µM (inactive)
24 | C[C@H]1CCC/C=C/C2C[C@H](O)CC2[C@H](O)/C=C/C(=O)O1 (some centres undefined) | 0.29 µM
25 | COc1ccc2nc(Sc3c([N+](=O)[O-])nc(C)n3Cc3ccccc3)[nH]c2c1 | 55.4 µM (inactive)

Row | Structure (SMILES) | IC50
26 | Cc1ccc(/C=C2\SC(=S)N(CCCC(=O)Nc3cc(C)on3)C2=O)cc1 | > 80 µM (inactive)
27 | CCOC(=O)c1sc(NC(=O)c2cc(-c3ccccc3C)nc3ccccc23)c(C#N)c1C | 0.29 µM
28 | CCNc1nc(C)c2cc(Br)c(=O)n(CC)c2n1 | > 80 µM (inactive)
29 | CCOc1cc2nc(-c3ccc(OC)c(OC)c3)nc(N3CCOCC3)c2cc1OC | 7.5 µM
30 | CC(C)(C)c1ccc(-c2noc(CCC(=O)NCc3ccco3)n2)cc1 | 0.49 µM
31 | Cc1ccc(C(=O)CSc2nnc(COc3ccccc3)o2)cc1 | 40.9 µM (inactive)
32 | CCOC(=O)Cc1csc(NC(=S)NC(=O)c2ccc(C)cc2)n1 | > 80 µM (inactive)
33 | N=c1c2c(n(Cc3ccc(Cl)cc3Cl)c3c1CCC3)CCCC2 | 3.43 µM
34 | Cc1nc([N+](=O)[O-])c(Sc2nc3ccc([N+](=O)[O-])cc3[nH]2)n1Cc1ccccc1 | 47.5 µM (inactive)
35 | Cc1cc(C)cc(NC(=O)c2nnn(Cc3cc(C)ccc3C)c2N)c1 | 4.79 µM
36 | COc1ccc(-c2noc(CCCC(=O)O)n2)cc1 | 4.02 µM
37 | CCN1C(=O)c2cccc3c(NC(=O)c4cccc(N5C(=O)CCC5=O)c4)ccc1c23 | > 80 µM (inactive)
38 | CCn1c(=O)cc(SCC(=O)N2CCCCC2)c2ccccc21 | > 80 µM (inactive)
39 | COCCNC(=O)CSCc1nc(-c2ccc(SC)cc2)oc1C | 65.6 µM (inactive)
40 | CN(C)c1cc[n+](Cc2c(Cl)cccc2Cl)cc1 | 9.88 µM
41 | O=C(CN1C(=O)c2ccccc2S1(=O)=O)N1CCc2ccccc21 | 0.897 µM
42 | COc1ccc(-c2nc(CSCC(=O)NCc3ccco3)c(C)o2)cc1 | 38.5 µM (inactive)
43 | Cc1cc(C)c2nc(NC(=O)[C@@H](NC(=O)c3cccc(S(=O)(=O)N4CCOCC4)c3)C(C)C)sc2c1 | > 80 µM (inactive)
44 | CCc1ccc(/C=C2/SC(=S)N(CCC(=O)Nc3cccc(C(=O)O)c3)C2=O)cc1 | > 80 µM (inactive)
45 | COc1ccc(/C=C2\SC(=S)N(CCCC(=O)NNC(=O)c3ccccc3O)C2=O)cc1 | 2.28 µM
46 | COc1ccc(/C=C2\SC(=S)N(CCC(=O)Nc3ccc(C(=O)O)cc3)C2=O)cc1 | > 80 µM (inactive)
47 | Cc1ccc(/C=C2\SC(=S)N(CCCC(=O)Nc3cccnc3)C2=O)cc1 | 51.8 µM (inactive)
48 | CNC(=O)c1cc(Nc2nnc(-c3ccc(O)cc3)c3ccccc23)ccc1OC | > 80 µM (inactive)
49 | Cc1cc(-c2cc(C(=O)NCc3ccccc3)on2)nc(S(C)(=O)=O)n1 | 15.6 µM
50 | COc1cc(-c2nc3n(n2)C(c2ccc(F)cc2)C2=C(CCCC2=O)N3)cc(OC)c1OC (centres undefined) | 30.4 µM (inactive)

Row | Structure (SMILES) | IC50
51 | c1ccc(CCNc2ncnc3ccccc23)cc1 | 0.45 µM
52 | CCNC(=O)CCc1nc(-c2ccc(C(C)(C)C)cc2)no1 | 34.9 µM (inactive)
53 | O=c1cccc2c1c1cc[nH]c3ccc(=O)n2c31 | 2.93 µM
54 | O=S(=O)(c1cnc(Cl)c(Cl)c1)N1CCCc2ccccc21 | > 80 µM (inactive)
55 | O=C(Nc1cccc(S(=O)(=O)Nc2ccc(Cl)cc2)c1)c1ccc(Cl)nc1 | 0.79 µM
56 | O=C(CCCN1C(=O)S/C(=C\C=C\c2ccccc2)C1=O)Nc1ccc(O)cc1 | > 80 µM (inactive)
57 | COc1ccc(S(=O)(=O)Nc2cc3c(C(C)=O)c(C)oc3c3ccccc23)cc1 | > 80 µM (inactive)
58 | O=C(NCCC1CCCCN1S(=O)(=O)c1ccc(Cl)cc1)C(=O)NCc1ccncc1 (centres undefined) | 20.4 µM (inactive)
59 | C(=N\Nc1nc(Nc2ccccc2)nc(Nc2ccccc2)n1)/c1cccnc1 | > 80 µM (inactive)
60 | O=C(N/N=C/c1cccnc1)c1cc(-c2ccccc2OCc2ccccc2)n[nH]1 | 12.7 µM
61 | COc1cccc(N2CCN(c3ncnc4c3[nH]c3ccc(F)cc34)CC2C)c1 (centres undefined) | 0.66 µM
62 | CCC(C)NC(=O)c1c(N)n(/N=C/c2ccccn2)c2nc3ccccc3nc12 (centres undefined) | 34.8 µM (inactive)
63 | CC(C)c1ccc(/C=C2\SC(=S)N(CCC(=O)NCCCn3ccnc3)C2=O)cc1 | 50.2 µM (inactive)
64 | COc1ccc(NC(=O)c2cc3c(Cl)nc4ccccc4c3s2)cc1OC | > 80 µM (inactive)
65 | Oc1cc(O)cc(-c2cc3ccc(O)cc3o2)c1 | > 80 µM (inactive)
66 | Cc1ccc(C(=O)NNC(=O)CCCN2C(=O)/C(=C/c3ccccc3Cl)SC2=S)cc1 | 30.8 µM (inactive)
67 | C/C=C(/C)C(=O)OC1Cc2c(ccc3ccc(=O)oc23)OC1(C)C (centres undefined) | 23.5 µM (inactive)
68 | O=C(C1CCC1)N1CCN(S(=O)(=O)c2ccc([N+](=O)[O-])cc2)CC1 | > 80 µM (inactive)
69 | Cc1csc(NC(=O)/C=C/c2ccc3c(c2)OCO3)n1 | > 80 µM (inactive)
70 | CC1CC(C)CN(S(=O)(=O)c2ccc(C(=O)NCCCn3ccnc3)cc2)C1 (centres undefined) | > 80 µM (inactive)
71 | CCCc1nc2c(C)cc(-c3nc4ccccc4n3C)cc2n1Cc1ccc(-c2ccccc2C(=O)O)cc1 | > 80 µM (inactive)
72 | CC1(c2nnc(-c3cccc(Cl)c3)o2)CC(c2cccc(Cl)c2)=NO1 (centres undefined) | 29.9 µM (inactive)
73 | Cc1nc2cc(-c3ccc(Cl)cc3)nn2c(C)c1CCC(=O)NC(C)c1ccc2c(c1)OCCO2 (centres undefined) | 11.5 µM
74 | COc1ccc(NC(=S)NCc2ccccc2)c(OC)c1 | > 80 µM (inactive)
75 | Cc1ccc(-c2nn3c(C)nnc3c3ccccc23)cc1S(=O)(=O)NCc1ccco1 | 15.4 µM

Row | Structure (SMILES) | IC50
76 | COc1ccc(-c2n(Cc3ccccc3)c3ccccc3[n+]2Cc2ccccc2)cc1 | 24.2 µM (inactive)
77 | Cn1nc(-c2ccc(N3CCOCC3)c(NS(=O)(=O)c3ccccc3)c2)c2ccccc2c1=O | 36.9 µM (inactive)
78 | Cc1ccc(C(=O)CSc2nnc(COc3cccc(C)c3)o2)cc1 | 21.6 µM (inactive)
79 | Cc1ccc(/C=C2\SC(=S)N(CCCC(=O)Nc3ccc(O)cc3)C2=O)cc1 | > 80 µM (inactive)
80 | O=C(NNC(=O)C12CC3CC(CC(C3)C1)C2)c1cccc(O)c1 | > 80 µM (inactive)
81 | O=C(NNC(=O)C12CC3CC(CC(Br)(C3)C1)C2)c1ccccc1F | > 80 µM (inactive)
82 | Cc1nn(C(C)(C)C)c(C)c1/C=N/OC(=O)Nc1ccc(Cl)c(Cl)c1 | < 0.16 µM
83 | COc1ccc(/C=N/OCC(=O)NC(c2ccccc2)c2ccccc2)cc1OC | 0.72 µM
84 | COc1ccc(/C=C2/SC(=S)N(CCCC(=O)Nc3ccc(O)cc3)C2=O)cc1OC | > 80 µM (inactive)
85 | CC(C)c1ccc(/C=C2\SC(=S)N(CCC(=O)N3CCCCC3CCO)C2=O)cc1 (centres undefined) | 17.5 µM
86 | O=C(Nc1nc(-c2ccccc2)cs1)c1ccccc1NS(=O)(=O)c1ccc(F)cc1 | 0.39 µM
87 | CCSc1ncc(Cl)c(C(=O)Nc2sc3c(c2C(=O)NCc2cccnc2)CCCC3)n1 | > 80 µM (inactive)
88 | CC(C)CN(C(=O)COC(=O)C12CC3CC(CC(C3)C1)C2)c1c(N)n(Cc2ccccc2)c(=O)[nH]c1=O | 10.6 µM
89 | CC(C)(C)C(=O)/C(=C/c1ccncc1)n1cncn1 | 20.9 µM (inactive)
90 | COc1ccc(OCc2cccc(C(=O)NN)c2)cc1 | 17.4 µM
91 | N=c1ccn(Cc2ccccc2Cl)cc1 | 21.3 µM (inactive)
92 | Cc1cc(C)nc(Sc2ccc([N+](=O)[O-])cc2[N+](=O)[O-])n1 | > 80 µM (inactive)
93 | Cn1c(=O)cc(Nc2ccccc2)c2c(=O)n(-c3ccccc3)c(=O)n(-c3ccccc3)c21 | 79.1 µM (inactive)
94 | Cc1[nH]c2ccccc2c1/C=N/Nc1nc(Nc2ccccc2)nc(N2CCOCC2)n1 | > 80 µM (inactive)
95 | O=C(Nc1nc2nc(-c3ccccc3)cc(-c3ccccc3)n2n1)c1ccco1 | 23.5 µM (inactive)
96 | CCOc1ccc(/C=C2\SC(=S)N(CCC(=O)Nc3cccc(C(=O)O)c3)C2=O)cc1 | > 80 µM (inactive)
97 | Cc1c(CC(=O)NCCCC(=O)O)c(=O)oc2cc3c(cc12)CCC(C)(C)O3 | 3.39 µM
98 | Cc1ccc(-c2cn(-c3ccccc3)c3[n+]2CCCS3)cc1 | 4.88 µM
99 | Cc1ccccc1-c1cc(C(=O)Nc2sc(C(=O)OC(C)C)c(C)c2C#N)c2ccccc2n1 | 0.35 µM
